Patent publication US6156493A, “Modified-affinity streptavidin” (priority 1997, dated 2000)
Like-named read-outs stand apart in the source and are kept apart here.

Key:
[1] = target: T1, Streptomyces avidinii core streptavidin variant W79F (Streptomyces avidinii, UniProt P22629, W103F); test: ELISA concentration-dependent binding to iminobiotin/BSA; conditions: for EC50: Absolute EC50, ligand iminobiotin/BSA
T1 construct: core streptavidin, defined as residues 13-139 of the naturally occurring protein; made in house
Description: (§1) ELISA Assays. […] 2-Iminobiotin conjugated to bovine serum albumin (iminobiotin/BSA) was synthesized by reacting a twenty-fold molar excess of 2-iminobiotin N-hydroxysuccinimide ester (sigma) with 100 mg BSA in 100 mM NaHCO3, pH 8.3 for 12 hr at 4° C. with end-over-end stirring, followed by dialysis and gel filtration (G-25, Pharmacia) to separate iminobiotin/BSA from unreacted 2-iminobiotin. […] The next day the microwell plates were incubated with 200 μl per well of blocking buffer at pH 8.0 or pH 10.0 (50 mM sodium phosphate, pH 8.0 or 50 mM Na2 CO3, pH 10.0/100 mM NaCl/0.5% (w/v) BSA/0.05% (v/v) Tween-20) for at least 2 hr at room temperature and then incubated in ten-fold serial dilutions of 100 μg/ml WT streptavidin or mutants (100 μl/well) for 2 hr at room temperature, rinsed with blocking buffer at pH 8.0 or pH 10.0 (200 μl/well), and incubated for 1 hr at room temperature in 2×10^4 dilution of primary antistreptavidin antibodies (Sigma) in pH 8.0 or pH 10.0 blocking buffer (100 μl/well). The plates were rinsed three times with 200 μl per well blocking buffer at the assay pH, incubated with secondary anti-IgG/alkaline phosphatase conjugate (Sigma) for 1 hr at room temperature, rinsed three times with blocking buffer, and assayed for alkaline phosphatase activity at pH 10.0. Every plate assayed had triplicates for each protein concentration. The data were processed on Mathcad (Mathworks) to determine the equivalent bulk concentration at 50% saturation of binding (EC50) values using a published 4-parameter nonlinear fitting algorithm shown below (Jin et al., J. Mol. Biol. 226: 851-865 (1992)):
(§2) y=a+(d-a)/[1+exp (b(c-x))]
(§3) where a, b, c, and d are the adjustable fitting parameters; x=streptavidin concentration (μg/ml); y=absorbance at 405 nm. Absolute EC50 in μg ml^-1 are given by the value of the parameter c for the best fit of the fitting function to the binding isotherm. Relative EC50 values reported in Table I are EC50 (mutant)/EC50 (WT streptavidin).

[2] = target: T2, Streptomyces avidinii core streptavidin variant W108F (Streptomyces avidinii, UniProt P22629, W132F); test: as above; conditions: for EC50: Absolute EC50, ligand iminobiotin/BSA
T2 construct: core streptavidin, defined as residues 13-139 of the naturally occurring protein; made in house
Description: as §1, §2, §3

[3] = target: Streptomyces avidinii core streptavidin Trp→Ala mutants (WxA: W79A, W108A, W120A); test: as above; conditions: ligand iminobiotin/BSA; pH 8/10; lower bound
Description: as §1, §2, §3

[4] = target: T3, Streptomyces avidinii core streptavidin variant W120F (Streptomyces avidinii, UniProt P22629, W144F); test: as above; conditions: Absolute EC50, ligand iminobiotin/BSA
T3 construct: core streptavidin, defined as residues 13-139 of the naturally occurring protein; made in house
Description: as §1, §2, §3

[5] = target: T4, Streptomyces avidinii core streptavidin variant W120A (Streptomyces avidinii, UniProt P22629, W144A); test: Affinity of W120A for 2-iminobiotin; format: binding
T4 construct: core streptavidin, defined as residues 13-139 of the naturally occurring protein; made in house

[6] = target: T5, Streptomyces avidinii core streptavidin (residues 13-139), wild type (WT) (Streptomyces avidinii, UniProt P22629); test: ELISA concentration-dependent binding to biotin/BSA or iminobiotin/BSA; conditions: ligand iminobiotin/BSA, EC50 is protein concentration, read-out: Absolute EC50 (converted)
T5 construct: core streptavidin, defined as residues 13-139 of the naturally occurring protein; made in house
Description: ELISA Assays. […] 2-Iminobiotin conjugated to bovine serum albumin (iminobiotin/BSA) was synthesized by reacting a twenty-fold molar excess of 2-iminobiotin N-hydroxysuccinimide ester (sigma) with 100 mg BSA in 100 mM NaHCO3, pH 8.3 for 12 hr at 4° C. with end-over-end stirring, followed by dialysis and gel filtration (G-25, Pharmacia) to separate iminobiotin/BSA from unreacted 2-iminobiotin. […] The next day the microwell plates were incubated with 200 μl per well of blocking buffer at pH 8.0 or pH 10.0 (50 mM sodium phosphate, pH 8.0 or 50 mM Na2 CO3, pH 10.0/100 mM NaCl/0.5% (w/v) BSA/0.05% (v/v) Tween-20) for at least 2 hr at room temperature and then incubated in ten-fold serial dilutions of 100 μg/ml WT streptavidin or mutants (100 μl/well) for 2 hr at room temperature, rinsed with blocking buffer at pH 8.0 or pH 10.0 (200 μl/well), and incubated for 1 hr at room temperature in 2×10^4 dilution of primary antistreptavidin antibodies (Sigma) in pH 8.0 or pH 10.0 blocking buffer (100 μl/well). […]
where a, b, c, and d are the adjustable fitting parameters; x=streptavidin concentration (μg/ml); y=absorbance at 405 nm. […]

[7] = target: Streptomyces avidinii streptavidin, wild type (WT); test: Known Ka of ligand-WT streptavidin partners used for the analysis; format: binding; conditions: pH 10.0; estimated from experimentally-determined value for iminobiotin/avidin
From the text: Streptavidin, a protein produced by Streptomyces avidinii, forms a very strong and specific non-covalent complex with the water soluble vitamin biotin. […] See, Green, Adv. Prot. Chem. 29: 85-143 (1975).
Order of magnitude determinations of ΔKa for the mutants were estimated from the EC50, given the known Ka 's of some of these ligand-protein partners. […] These numbers are further supported by the independently determined biotin-binding affinities of the W79A and W120A mutants, which agree well with the ELISA estimates.

[8] = target: T6, Streptomyces avidinii core streptavidin, wild type (WT) (Streptomyces avidinii, UniProt P22629); test: Equilibrium binding of 3H-biotin (ultrafiltration spin-column assay); conditions: tight-binding limit; 0.2 nM total biotin; isotherm identical to W120F
T6 construct: core streptavidin, defined as residues 13-139 of the naturally occurring protein; made in house
Description: (§4) The free ligand was then separated from the protein-bound ligand by either Microcon-30 or Centriprep-30 centrigual ultrafiltration devices (Amicon, Inc.). Typically, 0.1-1 ml of the free ligand solution or the protein-ligand mixture was added to 18 ml liquid scintillation cocktail (Ecolume, ICN Biomedicals, Inc., Costa Mesa, Calif.) and assayed on a liquid scintillation counter (Beckman Instruments, Inc., Fullerton, Calif.). The Ka was determined from a nonlinear curve fit of the fraction of protein-bound ligand versus the free protein concentration.
(§5) This assay provides a useful estimate of the Ka when the affinities lie between 10^6 -10^9.

[9] = target: T3, Streptomyces avidinii core streptavidin variant W120F; conditions: tight-binding limit; 0.2 nM total biotin
Description: as §4, §5

[10] = target: T1, Streptomyces avidinii core streptavidin variant W79F; test: Streptavidin-biotin dissociation rate (3H biotin, cold biotin chase, ultrafiltration) and transition state analysis; format: binding
Description: (§6) Fifty μl of the filtrate were mixed with 10 ml scintillation cocktail in triplicate and assayed for radioactivity in a liquid scintillation counter (LS-7000, Beckman Instruments, Fullerton, Calif.). […] Standard deviations were determined based on three independent measurements.

[11] = target: T6, Streptomyces avidinii core streptavidin, wild type (WT); test: as above; format: binding
Description: as §6

[12] = target: T2, Streptomyces avidinii core streptavidin variant W108F; test: as above; format: binding
Description: as §6

[13] = target: T3, Streptomyces avidinii core streptavidin variant W120F; test: as above; format: binding
Description: as §6

[14] = target: T1, Streptomyces avidinii core streptavidin variant W79F; test: Equilibrium biotin-binding enthalpy and heat capacity (isothermal titrating calorimetry)
Description: (§7) The equilbrium binding enthalpies, ΔH°, and the heat capacities, ΔCp°, have also been […] with the streptavidin mutants (Table II). Heat capacities were determined as generally described in Murphy et al., Proteins: Structure, Function and Genetics 15:113-120 (1993), incorporated herein by reference.
(§8) The determination of ΔGr .noteq. by transition state analysis and the independent estimation of ΔG^0 from affinity measurements allows the drawing of free energy profiles for WT streptavidin and the Trp to Phe mutants. Similarly, the enthalpic energy profiles can be drawn from the equilibrium biotin-binding enthalpy (ΔH^0), independently determined by isothermal titrating calorimetry measurements, and ΔHr .noteq. available from transition state analysis of the temperature-dependent protein-ligand dissociation kinetics. The virtue of this analysis is that is allows the free energy barriers responsible for the off-rates of the different mutants to be delineated in terms of alterations in the transition state and/or the biotin-bound ground state, and further partitions these free energy changes into enthalpic and entropic components. Upon comparison with the results for WT streptavidin, the thermodynamic effects of mutating specific residues can then be mapped, providing considerable insight into the structure and energetics of the transition state.

[15] = target: T4, Streptomyces avidinii core streptavidin variant W120A; test: as above
Description: as §7, §8

[16] = target: T6, Streptomyces avidinii core streptavidin, wild type (WT); test: as above
Description: as §7, §8

[17] = target: T2, Streptomyces avidinii core streptavidin variant W108F; test: as above
Description: as §7, §8

[18] = target: T7, Streptomyces avidinii core streptavidin variant W79A (Streptomyces avidinii, UniProt P22629, W103A); test: as above
T7 construct: core streptavidin, defined as residues 13-139 of the naturally occurring protein; made in house
Description: as §7, §8

[19] = target: T3, Streptomyces avidinii core streptavidin variant W120F; test: as above
Description: as §7, §8

[20] = activation barrier of biotin dissociation
[21] = activation enthalpy of biotin dissociation, transition state analysis
[22] = biotin-bound ground state relative to WT
[23] = equilibrium biotin binding enthalpy
[24] = heat capacity of biotin binding

T4 sequence (P22629 37-163 W144A): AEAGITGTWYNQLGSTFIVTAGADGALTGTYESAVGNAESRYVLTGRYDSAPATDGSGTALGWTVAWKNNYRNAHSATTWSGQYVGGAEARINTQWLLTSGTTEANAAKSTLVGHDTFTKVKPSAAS
T2 sequence (P22629 37-163 W132F): as the sequence (P22629 37-163 W144A) above, with W96F, A108W counted along it
T3 sequence (P22629 37-163 W144F): as the sequence (P22629 37-163 W144A) above, with A108F counted along it
T1 sequence (P22629 37-163 W103F): as the sequence (P22629 37-163 W144A) above, with W67F, A108W counted along it
T6 sequence (P22629 37-163): as the sequence (P22629 37-163 W144A) above, with A108W counted along it
T5 sequence (P22629 37-163): as the sequence (P22629 37-163 W144A) above, with A108W counted along it
T7 sequence (P22629 37-163 W103A): as the sequence (P22629 37-163 W144A) above, with W67A, A108W counted along it

## N=C1N[C@H]2[C@H](CS[C@H]2CCCCC(=O)O)N1 [2-iminobiotin]
[1]
  Kd: 9.26 to 9.35 mM
[1]; pH 8
  EC50: 34 µM
[1]; pH 10
  EC50: 0.575 µM
[2]
  Kd: 9.26 to 9.35 mM
[2]; pH 8
  EC50: 39.5 µM
[2]; pH 10
  EC50: 0.493 µM
[3]
  Absolute EC50: ≥ 100 µg/mL
[4]; pH 8
  EC50: 42.2 µM
[4]; pH 10
  EC50: 16.6 µM
[5]
  affinity for 2-iminobiotin: < 10^3 M^-1
[6]; pH 8
  EC50: 189 nM
[6]; pH 10
  EC50: 214 nM
[7]
  Ka for iminobiotin/WT streptavidin: 10^8 M^-1

## O=C(O)CCCC[C@@H]1SC[C@@H]2NC(=O)N[C@@H]21 [biotin]
[8]
  Ka (biotin): > 10^9
[9]
  Ka (biotin): > 10^9
[10]; T = 298K, biotin dissociation
  TΔSr≠: 11.6 ± 0.6 kal mol^-1
[10]; [20]
  ΔGr≠: 23.3 ± 0.8 kal mol^-1
[10]; [21]
  ΔHr≠: 34.9 ± 0.6 kcal/mol
[10]; biotin dissociation
  ΔΔGr≠ = ΔGr≠(mutant) - ΔGr≠(WT): -1.1 kal mol^-1
[11]
  ΔGr≠ (activation barrier for biotin dissociation): 24.4 kcal/mol
[11]; T = 298K, biotin dissociation
  TΔSr≠: 7.6 ± 2.1 kal mol^-1
[11]; [20]
  ΔGr≠: 24.4 ± 2.4 kal mol^-1
[11]; biotin dissociation
  t1/2 of biotin complex: 35 h
  ΔΔGr≠ = ΔGr≠(mutant) - ΔGr≠(WT): 0 kal mol^-1
[12]; T = 298K, biotin dissociation
  TΔSr≠: 13.8 ± 0.9 kal mol^-1
[12]; [20]
  ΔGr≠: 22.7 ± 1.3 kal mol^-1
[12]; [21]
  ΔHr≠: 36.5 ± 0.9 kcal/mol
[12]; biotin dissociation
  ΔΔGr≠ = ΔGr≠(mutant) - ΔGr≠(WT): -1.7 kal mol^-1
[13]; T = 298K, biotin dissociation
  TΔSr≠: 6.6 ± 1.0 kal mol^-1
[13]; [20]
  ΔGr≠: 21.9 ± 1.4 kal mol^-1
[13]; biotin dissociation
  ΔΔGr≠ = ΔGr≠(mutant) - ΔGr≠(WT): -2.5 kal mol^-1
[14]; biotin binding, relative to WT
  TΔΔS°: -2.4 kcal/mol
  ΔΔH°: -1.5 kcal/mol
[14]; [22]
  ΔΔG°: +0.9 kcal mol^-1
[14]; [23]
  ΔH°: -25.9 kcal/mol
[14]; [24]
  ΔCp°: -266 cal/molK
[15]; [23]
  ΔH°: -12.8 kcal/mol
[15]; [24]
  ΔCp°: -272 cal/molK
[16]; [23]
  ΔH°: -24.5 kcal/mol
[16]; [24]
  ΔCp°: -345 cal/molK
[17]; [23]
  ΔH°: -23.5 kcal/mol
[17]; [24]
  ΔCp°: -386 cal/molK
[18]; [23]
  ΔH°: -18.5 kcal/mol
[18]; [24]
  ΔCp°: -357 cal/molK
[19]; biotin binding, relative to WT
  TΔΔS° (entropy term): +2.4 kcal mol^-1
  ΔΔH°: +5.1 kcal mol^-1
[19]; [22]
  ΔΔG°: +2.7 kcal mol^-1
[19]; [23]
  ΔH°: -19.4 kcal/mol
[19]; [24]
  ΔCp°: -303 cal/molK
